The source made the active and inactive calls. No cut-off for these calls is given here.
How the values were obtained:
PC-12 [1] = assay: Cytoprotective activity against H2O2-induced oxidative damage in rat PC-12 cells assessed as cell viability at 1 uM preincubated for 4 hrs followed by H2O2 treatment for another 24 hrs by MTT assay; assay type: functional, cell-based; settings: time 28.0 hrs
Cholinesterase = Cholinesterase (Equus caballus, UniProt P81908)
Description: Inhibition of equine serum BchE using S-butyryl thiocholine iodide as substrate incubated for 10 mins followed by substrate addition measured at 0 to 180 secs by Ellman's method

[2] = biological target: Amyloid-beta precursor protein (Homo sapiens) (UniProt P05067); assay: Inhibition of amyloid beta (1 to 42) (unknown origin) self-induced aggregation at 25 uM measured after 46 to 48 hrs by Thioflavin binding assay relative to control; settings: time 46-48 hrs
Amyloid-beta precursor protein (Homo sapiens), sequence (P05067 whole entry): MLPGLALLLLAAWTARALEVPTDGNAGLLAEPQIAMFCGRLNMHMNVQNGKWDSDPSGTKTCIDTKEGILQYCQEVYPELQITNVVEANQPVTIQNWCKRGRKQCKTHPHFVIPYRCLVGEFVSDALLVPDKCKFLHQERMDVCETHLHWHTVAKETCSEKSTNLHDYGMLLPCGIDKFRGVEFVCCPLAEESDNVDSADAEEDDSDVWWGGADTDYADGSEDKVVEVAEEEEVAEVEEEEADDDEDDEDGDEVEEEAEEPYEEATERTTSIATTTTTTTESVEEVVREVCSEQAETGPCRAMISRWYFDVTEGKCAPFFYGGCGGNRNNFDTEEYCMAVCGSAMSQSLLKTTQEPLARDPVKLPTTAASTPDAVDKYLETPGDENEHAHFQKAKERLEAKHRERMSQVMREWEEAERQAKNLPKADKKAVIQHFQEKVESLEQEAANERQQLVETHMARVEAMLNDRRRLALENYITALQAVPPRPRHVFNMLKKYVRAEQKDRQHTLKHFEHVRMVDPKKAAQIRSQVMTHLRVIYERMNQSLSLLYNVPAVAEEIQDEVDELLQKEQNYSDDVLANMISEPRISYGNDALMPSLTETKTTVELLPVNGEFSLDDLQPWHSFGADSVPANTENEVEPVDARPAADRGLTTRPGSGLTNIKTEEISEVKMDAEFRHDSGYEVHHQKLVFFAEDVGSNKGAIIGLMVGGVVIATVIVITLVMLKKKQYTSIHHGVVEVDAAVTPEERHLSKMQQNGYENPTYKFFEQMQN

Acetylcholinesterase = Acetylcholinesterase (Electrophorus electricus, UniProt O42275); assay: Inhibition of Electrophorus electricus AchE using […] as substrate incubated for 10 mins followed by substrate addition measured at 0 to 180 secs by Ellman's method
Acetylcholinesterase, sequence (O42275 whole entry): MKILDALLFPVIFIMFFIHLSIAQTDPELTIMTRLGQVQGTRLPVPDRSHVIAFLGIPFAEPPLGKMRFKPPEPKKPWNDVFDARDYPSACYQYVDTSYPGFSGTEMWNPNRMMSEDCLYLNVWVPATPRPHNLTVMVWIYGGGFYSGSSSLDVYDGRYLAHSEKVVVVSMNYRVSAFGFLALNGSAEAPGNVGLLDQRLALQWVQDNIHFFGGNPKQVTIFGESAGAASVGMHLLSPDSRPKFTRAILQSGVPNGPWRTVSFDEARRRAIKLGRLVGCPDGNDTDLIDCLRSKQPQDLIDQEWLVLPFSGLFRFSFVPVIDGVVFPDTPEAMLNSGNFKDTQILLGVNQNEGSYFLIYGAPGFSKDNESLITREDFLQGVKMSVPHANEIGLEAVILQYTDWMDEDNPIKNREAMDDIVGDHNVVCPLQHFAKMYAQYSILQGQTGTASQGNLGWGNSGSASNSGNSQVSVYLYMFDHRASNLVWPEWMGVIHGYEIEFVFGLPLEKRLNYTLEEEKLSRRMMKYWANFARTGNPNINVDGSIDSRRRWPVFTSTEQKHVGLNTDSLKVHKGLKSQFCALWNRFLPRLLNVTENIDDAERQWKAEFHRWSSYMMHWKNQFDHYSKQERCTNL

PC-12 [3] = assay: Antioxidant activity in H2O2-induced oxidative stress in rat PC-12 cells assessed as increase in expression of Nrf2 level preincubated for 4 hrs followed by H2O2 treatment for another 24 hrs by Western blotting analysis; assay type: functional, cell-based; settings: dose 0.5-3 µM, time 28.0 hrs, DDE = dose-dependent effect
PC-12 [4] = assay: Cytoprotective activity against H2O2-induced oxidative damage in rat PC-12 cells assessed as cell viability at 1 to 3 uM preincubated for 4 hrs followed by H2O2 treatment for another 24 hrs by MTT assay; assay type: functional, cell-based; settings: dose 1-3 µM, time 28.0 hrs
[5] = AUC (0 to infinity) in Sprague-Dawley rat plasma at 2 mg/kg, iv measured at 10 to 1440 mins by LC-MS/MS analysis; assay type: ADME, organism-based; design: time lower 10 min, dose 2 mg/kg, time upper 1440 min, route iv
[6] = Cmax in Sprague-Dawley rat plasma at 2 mg/kg, iv measured at 10 to 1440 mins by LC-MS/MS analysis; assay type: ADME, organism-based; design: time lower 10 min, dose 2 mg/kg, time upper 1440 min, route iv
[7] = Toxicity in sopolamine-induced cognitive impairment ICR mouse model assessed as morphological change in liver at 10 mg/kg, ip administered for 14 consecutive days followed by scopolmaine-stimulation measured on day 21 by H and E staining method; assay type: organism-based; settings: in vivo, 504 h, time 21 day
[8] = AUC (0 to 24 hrs) in Sprague-Dawley rat plasma at 10 mg/kg, IG measured at 10 to 1440 mins by LC-MS/MS analysis; assay type: ADME, organism-based; design: dose 10 mg/kg, time 10-1440 min, route ig; settings: po
PC-12 [9] = assay: Induction of apoptosis in rat PC-12 cells assessed as early apoptotic cells at 0.1 uM preincubated for 4 hrs followed by H2O2 treatment for another 24 hrs by Annexin V and PI double staining based flow cytometric analysis (RVB = 4.52 %); assay type: functional; settings: time 28 hrs
[10] = MRT infinity in Sprague-Dawley rat plasma at 2 mg/kg, iv measured at 10 to 1440 mins by LC-MS/MS analysis; assay type: ADME, organism-based; settings: time 10-1440 min
PC-12 [11] = assay: Induction of apoptosis in rat PC-12 cells assessed as early apoptotic cells at 0.5 uM preincubated for 4 hrs followed by H2O2 treatment for another 24 hrs by Annexin V and PI double staining based flow cytometric analysis (RVB = 4.52 %); assay type: functional; settings: time 28 hrs
[12] = Toxicity in sopolamine-induced cognitive impairment ICR mouse model assessed as morphological change in spleen at 10 mg/kg, ip administered for 14 consecutive days followed by scopolmaine-stimulation measured on day 21 by H and E staining method; assay type: organism-based; settings: in vivo, 504 h, time 21 day
[13] = Toxicity in sopolamine-induced cognitive impairment ICR mouse model assessed as morphological change in heart at 10 mg/kg, ip administered for 14 consecutive days followed by scopolmaine-stimulation measured on day 21 by H and E staining method; assay type: organism-based; settings: in vivo, 504 h, time 21 day
[14] = Cmax in Sprague-Dawley rat plasma at 10 mg/kg, IG measured at 10 to 1440 mins by LC-MS/MS analysis; assay type: ADME, organism-based; design: dose 10 mg/kg, time 10-1440 min, route ig; settings: po
PC-12 [15] = assay: Induction of apoptosis in rat PC-12 cells assessed as late apoptotic cells at 0.3 uM preincubated for 4 hrs followed by H2O2 treatment for another 24 hrs by Annexin V and PI double staining based flow cytometric analysis (RVB = 5.46 %); assay type: functional; settings: time 28 hrs
[16] = Toxicity in sopolamine-induced cognitive impairment ICR mouse model assessed as morphological change in lung at 10 mg/kg, ip administered for 14 consecutive days followed by scopolmaine-stimulation measured on day 21 by H and E staining method; assay type: organism-based; settings: in vivo, 504 h, time 21 day
[17] = Bioavailability in Sprague-Dawley rat plasma at 10 mg/kg, IG measured at 10 to 1440 mins by LC-MS/MS analysis; assay type: ADME, organism-based; settings: po, time 10-1440 min
PC-12 [18] = assay: Induction of apoptosis in rat PC-12 cells assessed as necrotic cells at 0.1 uM preincubated for 4 hrs followed by H2O2 treatment for another 24 hrs by Annexin V and PI double staining based flow cytometric analysis (RVB = 2.94 %); assay type: functional; settings: time 28 hrs
[19] = Tmax in Sprague-Dawley rat plasma at 2 mg/kg, iv measured at 10 to 1440 mins by LC-MS/MS analysis; assay type: ADME, organism-based; settings: time 10-1440 min
[20] = Half life in Sprague-Dawley rat plasma at 10 mg/kg, IG measured at 10 to 1440 mins by LC-MS/MS analysis; assay type: ADME, organism-based; settings: po, time 10-1440 min
PC-12 [21] = assay: Induction of apoptosis in rat PC-12 cells assessed as necrotic cells at 0.5 uM preincubated for 4 hrs followed by H2O2 treatment for another 24 hrs by Annexin V and PI double staining based flow cytometric analysis (RVB = 2.94 %); assay type: functional; settings: time 28 hrs
[22] = Toxicity in sopolamine-induced cognitive impairment ICR mouse model assessed as swimming motility impairment at 10 mg/kg, ip administered for 14 consecutive days followed by scopolmaine-stimulation measured on day 21; assay type: organism-based; settings: in vivo, 504 h, time 21 day
PC-12 [23] = assay: Induction of apoptosis in rat PC-12 cells assessed as late apoptotic cells at 0.1 uM preincubated for 4 hrs followed by H2O2 treatment for another 24 hrs by Annexin V and PI double staining based flow cytometric analysis (RVB = 5.46 %); assay type: functional; settings: time 28 hrs
PC-12 [24] = assay: Induction of apoptosis in rat PC-12 cells assessed as viable cells at 0.3 uM preincubated for 4 hrs followed by H2O2 treatment for another 24 hrs by Annexin V and PI double staining based flow cytometric analysis (RVB = 87.1 %); assay type: functional; settings: time 28 hrs, read-out: Activity
PC-12 [25] = assay: Induction of apoptosis in rat PC-12 cells assessed as viable cells at 0.1 uM preincubated for 4 hrs followed by H2O2 treatment for another 24 hrs by Annexin V and PI double staining based flow cytometric analysis (RVB = 87.1 %); assay type: functional; settings: time 28 hrs, read-out: Activity
[26] = Half life in Sprague-Dawley rat plasma at 2 mg/kg, iv measured at 10 to 1440 mins by LC-MS/MS analysis; assay type: ADME, organism-based; settings: time 10-1440 min
[27] = MRT infinity in Sprague-Dawley rat plasma at 10 mg/kg, IG measured at 10 to 1440 mins by LC-MS/MS analysis; assay type: ADME, organism-based; settings: po, time 10-1440 min
[28] = Clearance in Sprague-Dawley rat plasma at 2 mg/kg, iv measured at 10 to 1440 mins by LC-MS/MS analysis; assay type: ADME, organism-based; settings: time 10-1440 min
PC-12 [29] = assay: Antioxidant activity in H2O2-induced oxidative stress in rat PC-12 cells assessed as increase in expression of HO-1 level preincubated for 4 hrs followed by H2O2 treatment for another 24 hrs by Western blotting analysis; assay type: functional, cell-based; settings: dose 0.5-3 µM, time 28.0 hrs, DDE = dose-dependent effect
PC-12 [30] = assay: Induction of apoptosis in rat PC-12 cells assessed as viable cells at 0.5 uM preincubated for 4 hrs followed by H2O2 treatment for another 24 hrs by Annexin V and PI double staining based flow cytometric analysis (RVB = 87.1 %); assay type: functional; settings: time 28 hrs, read-out: Activity
PC-12 [31] = assay: Induction of apoptosis in rat PC-12 cells assessed as late apoptotic cells at 0.5 uM preincubated for 4 hrs followed by H2O2 treatment for another 24 hrs by Annexin V and PI double staining based flow cytometric analysis (RVB = 5.46 %); assay type: functional; settings: time 28 hrs
[32] = Toxicity in sopolamine-induced cognitive impairment ICR mouse model assessed as emesis at 10 mg/kg, ip administered for 14 consecutive days followed by scopolmaine-stimulation measured on day 21; assay type: organism-based; settings: in vivo, 504 h, time 21 day
PC-12 [33] = assay: Induction of apoptosis in rat PC-12 cells assessed as early apoptotic cells at 0.3 uM preincubated for 4 hrs followed by H2O2 treatment for another 24 hrs by Annexin V and PI double staining based flow cytometric analysis (RVB = 4.52 %); assay type: functional; settings: time 28 hrs
Mus musculus [34] = assay: Antialzheimer activity in scopolamine-induced cognitive impairment ICR mouse model assessed as improvement of exploration ability at 2.5 to 10 mg/kg, ip administered for 14 consecutive days followed by scopolmaine-stimulation measured on day 21 by Y maze test; assay type: functional; settings: dose 2.5-10 mg/kg, time 21 day
[35] = AUC (0 to infinity) in Sprague-Dawley rat plasma at 10 mg/kg, IG measured at 10 to 1440 mins by LC-MS/MS analysis; assay type: ADME, organism-based; design: time lower 10 min, dose 10 mg/kg, time upper 1440 min, route ig; settings: po
Mus musculus [36] = assay: Antialzheimer activity in ICR mouse assessed as reduction in scopolamine-induced cognitive impairment at 2.5 to 10 mg/kg, ip administered for 14 consecutive days followed by scopolmaine-stimulation measured on day 21 by Morris water maze test; assay type: functional, organism-based; settings: dose 2.5-10 mg/kg, time 21.0 day, DDE = dose-dependent effect
[37] = Toxicity in sopolamine-induced cognitive impairment ICR mouse model assessed as diarrhea at 10 mg/kg, ip administered for 14 consecutive days followed by scopolmaine-stimulation measured on day 21; assay type: organism-based; settings: in vivo, 504 h, time 21 day
[38] = Tmax in Sprague-Dawley rat plasma at 10 mg/kg, IG measured at 10 to 1440 mins by LC-MS/MS analysis; assay type: ADME, organism-based; settings: po, time 10-1440 min
[39] = AUC (0 to 24 hrs) in Sprague-Dawley rat plasma at 2 mg/kg, iv measured at 10 to 1440 mins by LC-MS/MS analysis; assay type: ADME, organism-based; design: time lower 10 min, dose 2 mg/kg, time upper 1440 min, route iv
PC-12 [40] = assay: Inhibition of ROS production in rat PC-12 cells assessed as intracellular ROS level at 0.1 to 0.5 uM preincubated for 4 hrs followed by H2O2 treatment for another 24 hrs by flow cytometric analysis (RVB = 1.58); assay type: functional; settings: dose 0.1-0.5 µM; time 28 hrs
[41] = Clearance in Sprague-Dawley rat plasma at 10 mg/kg, IG measured at 10 to 1440 mins by LC-MS/MS analysis; assay type: ADME, organism-based; settings: po, time 10-1440 min
PC-12 [42] = assay: Induction of apoptosis in rat PC-12 cells assessed as necrotic cells at 0.3 uM preincubated for 4 hrs followed by H2O2 treatment for another 24 hrs by Annexin V and PI double staining based flow cytometric analysis (RVB = 2.94 %); assay type: functional; settings: time 28 hrs
in vitro = settings: PAMPA
[43] = Toxicity in sopolamine-induced cognitive impairment ICR mouse model assessed as morphological change in renal at 10 mg/kg, ip administered for 14 consecutive days followed by scopolmaine-stimulation measured on day 21 by H and E staining method; assay type: organism-based; settings: in vivo, 504 h, time 21 day

Cholinesterase, sequence (P81908 whole entry): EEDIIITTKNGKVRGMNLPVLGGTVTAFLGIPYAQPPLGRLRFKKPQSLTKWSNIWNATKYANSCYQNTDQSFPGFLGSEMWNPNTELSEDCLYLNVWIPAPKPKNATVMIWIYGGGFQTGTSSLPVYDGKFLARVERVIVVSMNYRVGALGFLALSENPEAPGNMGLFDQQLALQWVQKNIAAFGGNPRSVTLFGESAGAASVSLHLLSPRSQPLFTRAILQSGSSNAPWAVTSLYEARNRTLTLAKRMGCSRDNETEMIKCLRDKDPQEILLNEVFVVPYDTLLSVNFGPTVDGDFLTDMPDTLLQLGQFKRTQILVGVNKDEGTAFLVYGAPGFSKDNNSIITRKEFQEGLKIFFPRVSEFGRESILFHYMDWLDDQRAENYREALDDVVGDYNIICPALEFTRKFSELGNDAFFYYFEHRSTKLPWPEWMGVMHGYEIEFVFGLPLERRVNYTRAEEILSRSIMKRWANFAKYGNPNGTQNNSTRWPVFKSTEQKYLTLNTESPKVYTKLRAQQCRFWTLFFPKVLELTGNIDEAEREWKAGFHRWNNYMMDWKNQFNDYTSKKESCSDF

CC1CCCCN1CCOc1cc2c3c(nccc3c1)-c1ccccc1C2=O (stereo not drawn)
Activity (PC-12 [1]): Active
IC50 (Cholinesterase): > 100 µM
inhibition [2]: 16.2%
IC50 (Acetylcholinesterase): 1.31 µM

CC1CCCCN1CCCOc1cc2c3c(nccc3c1)-c1ccccc1C2=O (stereo not drawn)
Activity (PC-12 [3]): Dde
Activity (PC-12 [1]): Active
Activity (PC-12 [4]): Active
AUC(0-inf) [5]: 288 ng·h/mL
Cmax [6]: 103 ng/mL
Activity [7]: Non-Toxic
AUC(0-t) [8]: 704 ng·h/mL
Activity (PC-12 [9]): 6.76%
MRT inf [10]: 2.79 h
Activity (PC-12 [11]): 3.71%
Activity [12]: Non-Toxic
Activity [13]: Non-Toxic
Cmax [14]: 68.5 ng/mL
Activity (PC-12 [15]): 6.09%
Activity [16]: Non-Toxic
bioavailability [17]: 55.5%
Activity (PC-12 [18]): 4.58%
Tmax [19]: 4.98 min
half-life [20]: 6.47 h
Activity (PC-12 [21]): 2.96%
Activity [22]: Non-Toxic
Activity (PC-12 [23]): 8.98%
viability at 0.3 µM (PC-12 [24]): 86.9%
viability at 0.1 µM (PC-12 [25]): 79.7%
IC50 (Cholinesterase): 19.7 µM
half-life [26]: 3.73 h
MRT inf [27]: 6.48 h
clearance [28]: 116 mL/min/kg
Activity (PC-12 [29]): Dde
viability at 0.5 µM (PC-12 [30]): 88.5%
inhibition [2]: 35.3%
Activity (PC-12 [31]): 4.81%
Activity [32]: Non-Toxic
Activity (PC-12 [33]): 3.99%
Activity (Mus musculus [34]): 45.98%
AUC(0-inf) [35]: 841 ng·h/mL
IC50 (Acetylcholinesterase): 0.045 µM
Activity (Mus musculus [36]): Dde
Activity [37]: Non-Toxic
Tmax [38]: 3.33 h
AUC(0-t) [39]: 254 ng·h/mL
Activity (PC-12 [40]): 1.1
CL/F [41]: 208 mL/min/kg
Activity (PC-12 [42]): 2.99%
Papp (in vitro): 16.6 ×10⁻⁶ cm/s
Activity [43]: Non-Toxic

CN1CCN(CCOc2cc3c4c(nccc4c2)-c2ccccc2C3=O)CC1
Activity (PC-12 [1]): Active
IC50 (Cholinesterase): > 100 µM
inhibition [2]: 18.5%
IC50 (Acetylcholinesterase): 0.86 µM

O=C1c2ccccc2-c2nccc3cc(OCCN4CCOCC4)cc1c23
Activity (PC-12 [1]): Active
IC50 (Cholinesterase): > 100 µM
inhibition [2]: 24.4%
IC50 (Acetylcholinesterase): 19.7 µM

From ChEMBL document CHEMBL5120794, “Development of 5-hydroxyl-1-azabenzanthrone derivatives as dual binding site and selective acetylcholinesterase inhibitors” (Eur J Med Chem, 2022)
